PMC4965013, “Open Source Drug Discovery with the Malaria Box Compound Collection for Neglected Diseases and Beyond” (PLoS Pathogens, 2016)

How the values were obtained:
P. falciparum = assay: EC50 listed in S2 Table Metabolomics (used to set the concentration tested); assay type: cell-based; conditions: Plasmodium falciparum; EC50 used for Factor_XEC50 in metabolomics; read-out: EC50_nM
[1] = tested on: P. falciparum 3D7 trophozoites; assay: Metabolomic fingerprint profiling LC-MS; assay type: cell-based, Plasmodium falciparum; parameters: UDP-D-glucose / ADP-D-glucose: unit not given here; conditions: for Acetyllysine / N-acetyl-L-ornithine / N-carbamoyl-L-aspartate / NADPH / dAMP / dCMP / dTDP / dTMP / dTTP / dihydroorotate / orotate / DLH / DLS/SDL/SID / PD / PEE / PVNF / 3-phosphoglycerate / ADP-D-glucose / ATP / CDP / D-sedoheptulose-1/7-phosphate / FAD / GMP / NAD+ / NADP+ / Octoluse Bisphosphate / Pyroglutamic acid / UDP-D-glucose / UDP-D-glucuronate / UDP-N-acetyl-glucosamine / UDP / UMP / UTP / a-ketoglutarate / citrate/isocitrate / cytidine / dATP / dGMP/AMP / fumarate / glucose-1/6-phosphate / glycerate / guanine / guanosine / hypoxanthine / indole / inosine / nicotinate / ornithine / phosphoenolpyruvate / pyruvate / ribose-phosphate / sarcosine/alanine / sn-glycerol-3-phosphate / succinate/methylmalonic acid / uridine / xanthosine: S2 Table Metabolomics; for Acetyllysine: metabolite Acetyllysine; for N-acetyl-L-ornithine: metabolite N-acetyl-L-ornithine; for N-carbamoyl-L-aspartate: metabolite N-carbamoyl-L-aspartate; for NADPH: metabolite NADPH; for dAMP: metabolite dAMP; for dCMP: metabolite dCMP; for dTDP: metabolite dTDP; for dTMP: metabolite dTMP; for dTTP: metabolite dTTP; for dihydroorotate: metabolite dihydroorotate; for orotate: metabolite orotate; for DLH: peptide DLH; for DLS/SDL/SID: peptide DLS/SDL/SID; for PD: peptide PD; for PEE: peptide PEE; for PVNF: peptide PVNF; for 3-phosphoglycerate: metabolite 3-phosphoglycerate; for ADP-D-glucose: metabolite ADP-D-glucose; for ATP: metabolite ATP; for CDP: metabolite CDP; for CDP / D-sedoheptulose-1/7-phosphate / GMP / Octoluse Bisphosphate / UDP / UMP / UTP / citrate/isocitrate / dGMP/AMP / fumarate / glucose-1/6-phosphate / glycerate / guanine / guanosine / inosine / pyruvate / sarcosine/alanine / succinate/methylmalonic acid / uridine / xanthosine: change in metabolite level after compound treatment; for D-sedoheptulose-1/7-phosphate: metabolite D-sedoheptulose-1/7-phosphate; for FAD: metabolite FAD; for GMP: metabolite GMP; for NAD+: metabolite NAD+; for NADP+: metabolite NADP+; for Octoluse Bisphosphate: metabolite Octoluse Bisphosphate; for Pyroglutamic acid: metabolite Pyroglutamic acid; for UDP-D-glucose: metabolite UDP-D-glucose; for UDP-D-glucuronate: metabolite UDP-D-glucuronate; for UDP-N-acetyl-glucosamine: metabolite UDP-N-acetyl-glucosamine; for UDP: metabolite UDP; for UMP: metabolite UMP; for UTP: metabolite UTP; for a-ketoglutarate: metabolite a-ketoglutarate; for citrate/isocitrate: metabolite citrate/isocitrate; for cytidine: metabolite cytidine; for dATP: metabolite dATP; for dGMP/AMP: metabolite dGMP/AMP; for fumarate: metabolite fumarate; for glucose-1/6-phosphate: metabolite glucose-1/6-phosphate; for glycerate: metabolite glycerate; for guanine: metabolite guanine; for guanosine: metabolite guanosine; for hypoxanthine: metabolite hypoxanthine; for indole: metabolite indole; for inosine: metabolite inosine; for 2_3-Diphosphoglyceric acid / 4-phosphopantothenate / 6-phospho-D-gluconate / FMN / IMP / Pyrophosphate / Sedoheptoluse bisphosphate / cyclic-AMP / glutathione disulfide / lactate / myo-inositol: metabolite level change after treatment; for nicotinate: metabolite nicotinate; for ornithine: metabolite ornithine; for phosphoenolpyruvate: metabolite phosphoenolpyruvate; for pyruvate: metabolite pyruvate; for ribose-phosphate: metabolite ribose-phosphate; for sarcosine/alanine: metabolite sarcosine/alanine; for sn-glycerol-3-phosphate: metabolite sn-glycerol-3-phosphate; for succinate/methylmalonic acid: metabolite succinate/methylmalonic acid; for uridine: metabolite uridine; for xanthosine: metabolite xanthosine

COc1ccc(C(=O)Nc2nonc2-c2ccc(OC)c(OC)c2)cc1Cl [MMV011567]
EC50 (P. falciparum): 516 nM | Acetyllysine [1]: -2.7765 | N-acetyl-L-ornithine [1]: -1.047 | N-carbamoyl-L-aspartate [1]: -1.546 | NADPH [1]: -0.479 | dAMP [1]: 2.616 | dCMP [1]: 7.615 | dTDP [1]: 4.376 | dTMP [1]: 5.592 | dTTP [1]: 4.192 | dihydroorotate [1]: -1.311 | orotate [1]: 1.606 | DLH [1]: -3.738 | DLS/SDL/SID [1]: -3.085 | PD [1]: -0.447 | PEE [1]: -2.659 | PVNF [1]: -4.149 | 3-phosphoglycerate [1]: -0.4312 | ADP-D-glucose [1]: -0.3179 | ATP [1]: 0.7262 | CDP [1]: 1.853 | D-sedoheptulose-1/7-phosphate [1]: -0.5728 | FAD [1]: -0.6926 | GMP [1]: -3.051 | NAD+ [1]: -0.6365 | NADP+ [1]: -0.4288 | Octoluse Bisphosphate [1]: -1.352 | Pyroglutamic acid [1]: 0.8228 | UDP-D-glucose [1]: 0.2841 | UDP-D-glucuronate [1]: 0.3235 | UDP-N-acetyl-glucosamine [1]: 0.4364 | UDP [1]: 1.166 | UMP [1]: 0.1995 | UTP [1]: 0.7659 | a-ketoglutarate [1]: -0.1289 | citrate/isocitrate [1]: 1.575 | cytidine [1]: 0.6834 | dATP [1]: 1.434 | dGMP/AMP [1]: -0.9068 | fumarate [1]: 0.5595 | glucose-1/6-phosphate [1]: -0.4437 | glycerate [1]: -0.2059 | guanine [1]: 1.129 | guanosine [1]: 0.9628 | hypoxanthine [1]: 0.8431 | indole [1]: 0.1357 | inosine [1]: -0.4655 | 2_3-Diphosphoglyceric acid [1]: -0.4768 | 4-phosphopantothenate [1]: 0.1624 | 6-phospho-D-gluconate [1]: 0.2149 | FMN [1]: 0.2743 | IMP [1]: 0.2415 | Pyrophosphate [1]: -0.9055 | Sedoheptoluse bisphosphate [1]: -0.2891 | cyclic-AMP [1]: 0.1677 | glutathione disulfide [1]: 0.2649 | lactate [1]: -0.6986 | myo-inositol [1]: -1.672 | nicotinate [1]: 1.088 | ornithine [1]: 0.1615 | phosphoenolpyruvate [1]: -0.2076 | pyruvate [1]: -1.296 | ribose-phosphate [1]: -0.6006 | sarcosine/alanine [1]: -1.205 | sn-glycerol-3-phosphate [1]: 0.6609 | succinate/methylmalonic acid [1]: -0.1426 | uridine [1]: 0.07808 | xanthosine [1]: 0.9674

COc1ccccc1CNC(=O)CCn1c(=O)[nH]c2ccsc2c1=O [MMV019066]
EC50 (P. falciparum): 140 nM | Acetyllysine [1]: 0.07735 | N-acetyl-L-ornithine [1]: -0.0529 | N-carbamoyl-L-aspartate [1]: 0.05336 | NADPH [1]: -0.3877 | dAMP [1]: -0.3418 | dCMP [1]: -0.4851 | dTDP [1]: 0.1634 | dTMP [1]: 0.1236 | dTTP [1]: -0.2106 | dihydroorotate [1]: 0.243 | orotate [1]: -0.2 | DLH [1]: -0.2144 | DLS/SDL/SID [1]: -0.3411 | PD [1]: 0.09576 | PEE [1]: 0.0022 | PVNF [1]: -0.1895 | 3-phosphoglycerate [1]: -0.09413 | ADP-D-glucose [1]: -0.05903 | ATP [1]: -0.2412 | CDP [1]: 0.1136 | D-sedoheptulose-1/7-phosphate [1]: 0.1088 | FAD [1]: 0.05372 | GMP [1]: 0.1058 | NAD+ [1]: 0.8616 | NADP+ [1]: -0.0134 | Octoluse Bisphosphate [1]: -0.2214 | Pyroglutamic acid [1]: -0.1934 | UDP-D-glucose [1]: 0.05907 | UDP-D-glucuronate [1]: -0.137 | UDP-N-acetyl-glucosamine [1]: 0.07368 | UDP [1]: 0.06631 | UMP [1]: 0.4511 | UTP [1]: -0.2134 | a-ketoglutarate [1]: -0.0676 | citrate/isocitrate [1]: -0.2257 | cytidine [1]: 0.1038 | dATP [1]: -0.07834 | dGMP/AMP [1]: 0.0855 | fumarate [1]: 1.364 | glucose-1/6-phosphate [1]: 0.5644 | glycerate [1]: -0.201 | guanine [1]: 0.002341 | guanosine [1]: -0.12 | hypoxanthine [1]: -0.07458 | indole [1]: -0.09687 | inosine [1]: -0.05497 | 2_3-Diphosphoglyceric acid [1]: -0.2512 | 4-phosphopantothenate [1]: -0.02128 | 6-phospho-D-gluconate [1]: -0.003238 | FMN [1]: -0.1662 | IMP [1]: 0.2187 | Pyrophosphate [1]: -0.2235 | Sedoheptoluse bisphosphate [1]: -0.07937 | cyclic-AMP [1]: -0.08199 | glutathione disulfide [1]: 0.08045 | lactate [1]: -0.3675 | myo-inositol [1]: -0.05445 | nicotinate [1]: -0.03534 | ornithine [1]: 0.2934 | phosphoenolpyruvate [1]: -0.1195 | pyruvate [1]: -0.02123 | ribose-phosphate [1]: -0.1454 | sarcosine/alanine [1]: 0.007595 | sn-glycerol-3-phosphate [1]: -0.1485 | succinate/methylmalonic acid [1]: 0.2071 | uridine [1]: 0.04529 | xanthosine [1]: -0.08771
